Data as given in patent publication US4326054A, “Cleomycins and process for producing same” (Zaidan Hojin Biseibutsu Kagaku Kenkyu Kai, priority 1979, dated 1982).
Blank lines part the entries; values can stand above or below the compound they belong to.

Experiments:
[1] = system: Mycobacterium smegmatis ATCC 607; assay: Antimicrobial activity, agar plate-cylinder method, bleomycin A2 as standard (1,000 u/mg); type: cell-based; conditions: copper-free form; for Antimicrobial potency: Examples, Step B, hydrochloride, bleomycin A2 = 1,000 u/mg; for Antimicrobiral potency: Table 5, relative to bleomycin A2 = 1,000 u/mg
Procedure: Typical examples of the biological activities measured on cleomycins (copper-free form) are illustrated below.
Comparison was made with the relevant antibiotics bleomycins. The relative antimicrobial potency (u/mg) against Mycobacterium smegmatis ATCC 607 was measured by agar plate-cylinder method using bleomycin A2 as a standard (1,000 u/mg).
(Note: The antimicrobial potency was determined by taking bleomycin
A2 as 1,000 μ/mg and using Mycobacterium smegmatis ATCC 607 as a
test bacterium. Herinafter, the same was applied.)

[2] = system: Mycobacterium smegmatis ATCC 607; assay: as above; type: cell-based; conditions: Examples, Step A; hydrochloride, copper-containing form; bleomycin A2 = 1,000 u/mg
[3] = system: HeLa S3 cells; assay: Activity on cultured HeLa S3 cells (growth inhibition); type: cell-based; conditions: Homo sapiens, HeLa S3, read-out: LD50 (fifty percent inhibitory concentration, growth inhibition)
Procedure: Fifty percent inhibitory cocentration (LD50) was determined on a test compound cleomycin (No. 33) and on a reference compound bleomycin A2, from the percent of growth inhibition measured on HeLa S3 cells after the cells had been cultured in the presence of each of the compounds.

[4] = Solubility (physical and chemical properties, Tables 4-1 and 4-2); conditions: hydrochloride, also soluble in dimethylformamide, dimethylsulfoxide, and methanol

Structure (SMILES): CCCCNCCCNCCCNC(=O)c1csc(-c2csc(CCNC(=O)C(NC(=O)C(C)C(O)C(C)NC(=O)C(NC(=O)c3nc(C(CC(N)=O)NCC(N)C(N)=O)nc(N)c3C)C(OC3OC(CO)C(O)C(O)C3OC3OC(CO)C(O)C(OC(N)=O)C3O)c3cnc[nH]3)C3(O)CC3)n2)n1 (stereo not shown)
Antimicrobial potency [1]: 7,942 u/mg
Antimicrobial potency [2]: 8,130 u/mg

Structure (SMILES): Cc1c(N)nc(C(CC(N)=O)NCC(N)C(N)=O)nc1C(=O)NC(C(=O)NC(C)C(O)C(C)C(=O)NC(C(=O)NCCc1nc(-c2nc(C(=O)NCCCNCCCCN)cs2)cs1)C1(O)CC1)C(OC1OC(CO)C(O)C(O)C1OC1OC(CO)C(O)C(OC(N)=O)C1O)c1cnc[nH]1 (stereo not shown)
Antimicrobial potency [1]: 3,575 u/mg
Antimicrobial potency [2]: 3,520 u/mg

Structure (SMILES): Cc1c(N)nc(C(CC(N)=O)NCC(N)C(N)=O)nc1C(=O)NC(C(=O)NC(C)C(O)C(C)C(=O)NC(C(=O)NCCc1nc(-c2nc(C(=O)NCCCCNC(=N)N)cs2)cs1)C1(O)CC1)C(OC1OC(CO)C(O)C(O)C1OC1OC(CO)C(O)C(OC(N)=O)C1O)c1cnc[nH]1 (stereo not shown) [4-guanidinobutylaminocleomycin]
Antimicrobial potency [1]: 3,262 u/mg
Antimicrobial potency [2]: 3,350 u/mg

Structure (SMILES): Cc1c(N)nc(C(CC(N)=O)NCC(N)C(N)=O)nc1C(=O)NC(C(=O)NC(C)C(O)C(C)C(=O)NC(C(=O)NCCc1nc(-c2nc(C(=O)NCCC[S+](C)C)cs2)cs1)C(C)O)C(OC1OC(CO)C(O)C(O)C1OC1OC(CO)C(O)C(OC(N)=O)C1O)c1cnc[nH]1 (stereo not shown) [Bleomycin A2, reference compound]
IC50 [3]: 0.73 µg/mL

Structure (SMILES): Cc1c(N)nc(C(CC(N)=O)NCC(N)C(N)=O)nc1C(=O)NC(C(=O)NC(C)C(O)C(C)C(=O)NC(C(=O)NCCc1nc(-c2nc(C(=O)NCCCCNC(=N)N)cs2)cs1)C1(O)CC1)C(OC1OC(CO)C(O)C(O)C1OC1OC(CO)C(O)C(OC(N)=O)C1O)c1cnc[nH]1 (stereo not shown) [Compound No. 2, 4-guanidinobutylaminocleomycin]
Antimicrobiral potency [1]: 3,262 u/mg
Solubility ([4]; copper-containing form): Soluble in water
Solubility ([4]; copper-free form): Soluble in water

Structure (SMILES): Cc1c(N)nc(C(CC(N)=O)NCC(N)C(N)=O)nc1C(=O)NC(C(=O)NC(C)C(O)C(C)C(=O)NC(C(=O)NCCc1nc(-c2nc(C(=O)NCCCN(C)CCCN)cs2)cs1)C1(O)CC1)C(OC1OC(CO)C(O)C(O)C1OC1OC(CO)C(O)C(OC(N)=O)C1O)c1cnc[nH]1 (stereo not shown) [Compound No. 20, 3-[N-methyl-N-(3-aminopropyl)]aminopropylaminocleomycin]
Antimicrobial potency [1]: 2,273 u/mg
Antimicrobiral potency [1]: 2,273 u/mg
Antimicrobial potency [2]: 2,300 u/mg

Structure (SMILES): Cc1c(N)nc(C(CC(N)=O)NCC(N)C(N)=O)nc1C(=O)NC(C(=O)NC(C)C(O)C(C)C(=O)NC(C(=O)NCCc1nc(-c2nc(C(=O)NCCC[S+](C)C)cs2)cs1)C1(O)CC1)C(OC1OC(CO)C(O)C(O)C1OC1OC(CO)C(O)C(OC(N)=O)C1O)c1cnc[nH]1 (stereo not shown) [compound 1, 3-s,s-dimethylmercaptopropylaminocleomycin]
Antimicrobial potency [1]: 1,320 u/mg
Antimicrobiral potency [1]: 1,320 u/mg
Antimicrobial potency [2]: 1,360 u/mg
Solubility ([4]; copper-containing form): Soluble in water
Solubility ([4]; copper-free form): Soluble in water

Solubility ([4]; copper-containing form): Soluble in water
Solubility ([4]; copper-free form): Soluble in water
Structure (SMILES): CCCCNCCCNCCCNC(=O)c1csc(-c2csc(CCNC(=O)C(NC(=O)C(C)C(O)C(C)NC(=O)C(NC(=O)c3nc(C(CC(N)=O)NCC(N)C(N)=O)nc(N)c3C)C(OC3OC(CO)C(O)C(O)C3OC3OC(CO)C(O)C(OC(N)=O)C3O)c3cnc[nH]3)C3(O)CC3)n2)n1 (stereo not shown) [compound 11, 3-(3-n-butylaminopropylamino)propylaminocleomycin]
Antimicrobiral potency [1]: 7,942 u/mg

Structure (SMILES): Cc1c(N)nc(C(CC(N)=O)NCC(N)C(N)=O)nc1C(=O)NC(C(=O)NC(C)C(O)C(C)C(=O)NC(C(=O)NCCc1nc(-c2nc(C(=O)NCCCN3CCOCC3)cs2)cs1)C1(O)CC1)C(OC1OC(CO)C(O)C(O)C1OC1OC(CO)C(O)C(OC(N)=O)C1O)c1cnc[nH]1 (stereo not shown) [compound 24, 3-morpholinopropylaminocleomycin]
Antimicrobiral potency [1]: 800 u/mg

Structure (SMILES): Cc1c(N)nc(C(CC(N)=O)NCC(N)C(N)=O)nc1C(=O)NC(C(=O)NC(C)C(O)C(C)C(=O)NC(C(=O)NCCc1nc(-c2nc(C(=O)NCCCNCCCN3CCCC3)cs2)cs1)C1(O)CC1)C(OC1OC(CO)C(O)C(O)C1OC1OC(CO)C(O)C(OC(N)=O)C1O)c1cnc[nH]1 (stereo not shown) [compound 26, 3-[3-(1-pyrrolidinyl)propylamino]propylaminocleomycin]
Antimicrobiral potency [1]: 3,590 u/mg

Structure (SMILES): Cc1c(N)nc(C(CC(N)=O)NCC(N)C(N)=O)nc1C(=O)NC(C(=O)NC(C)C(O)C(C)C(=O)NC(C(=O)NCCc1nc(-c2nc(C(=O)NCCCNCCCN3CCOCC3)cs2)cs1)C1(O)CC1)C(OC1OC(CO)C(O)C(O)C1OC1OC(CO)C(O)C(OC(N)=O)C1O)c1cnc[nH]1 (stereo not shown) [compound 28, 3-(3-morpholinopropylamino)propylaminocleomycin]
Antimicrobiral potency [1]: 1,715 u/mg

Structure (SMILES): COCCCNCCCNC(=O)c1csc(-c2csc(CCNC(=O)C(NC(=O)C(C)C(O)C(C)NC(=O)C(NC(=O)c3nc(C(CC(N)=O)NCC(N)C(N)=O)nc(N)c3C)C(OC3OC(CO)C(O)C(O)C3OC3OC(CO)C(O)C(OC(N)=O)C3O)c3cnc[nH]3)C3(O)CC3)n2)n1 (stereo not shown) [compound 31, 3-(3-methoxypropylamino)propylaminocleomycin]
Antimicrobiral potency [1]: 1,869 u/mg

Structure (SMILES): Cc1c(N)nc(C(CC(N)=O)NCC(N)C(N)=O)nc1C(=O)NC(C(=O)NC(C)C(O)C(C)C(=O)NC(C(=O)NCCc1nc(-c2nc(C(=O)NCCCNCc3ccccc3)cs2)cs1)C1(O)CC1)C(OC1OC(CO)C(O)C(O)C1OC1OC(CO)C(O)C(OC(N)=O)C1O)c1cnc[nH]1 (stereo not shown) [compound 32, 3-benzylaminopropylaminocleomycin]
Antimicrobiral potency [1]: 6.977 u/mg

Structure (SMILES): Cc1c(N)nc(C(CC(N)=O)NCC(N)C(N)=O)nc1C(=O)NC(C(=O)NC(C)C(O)C(C)C(=O)NC(C(=O)NCCc1nc(-c2nc(C(=O)NCCCNCCCNC3CCCCC3)cs2)cs1)C1(O)CC1)C(OC1OC(CO)C(O)C(O)C1OC1OC(CO)C(O)C(OC(N)=O)C1O)c1cnc[nH]1 (stereo not shown) [compound 37, 3-(3-cyclohexylaminopropylamino)propylaminocleomycin]
Antimicrobiral potency [1]: 14,784 u/mg

Structure (SMILES): Cc1c(N)nc(C(CC(N)=O)NCC(N)C(N)=O)nc1C(=O)NC(C(=O)NC(C)C(O)C(C)C(=O)NC(C(=O)NCCc1nc(-c2nc(C(=O)NCCc3cnc[nH]3)cs2)cs1)C1(O)CC1)C(OC1OC(CO)C(O)C(O)C1OC1OC(CO)C(O)C(OC(N)=O)C1O)c1cnc[nH]1 (stereo not shown) [compound 40, 2-(4-imidazolyl)ethylaminocleomycin]
Antimicrobiral potency [1]: 1,147 u/mg

Structure (SMILES): Cc1c(N)nc(C(CC(N)=O)NCC(N)C(N)=O)nc1C(=O)NC(C(=O)NC(C)C(O)C(C)C(=O)NC(C(=O)NCCc1nc(-c2nc(C(=O)NCCCNCCc3ccccn3)cs2)cs1)C1(O)CC1)C(OC1OC(CO)C(O)C(O)C1OC1OC(CO)C(O)C(OC(N)=O)C1O)c1cnc[nH]1 (stereo not shown) [compound 41, 3-[2-(2-pyridyl)ethylamino]propylaminocleomycin]
Antimicrobiral potency [1]: 6,068 u/mg

Structure (SMILES): Cc1c(N)nc(C(CC(N)=O)NCC(N)C(N)=O)nc1C(=O)NC(C(=O)NC(C)C(O)C(C)C(=O)NC(C(=O)NCCc1nc(-c2nc(C(=O)NCCCNCCCCCCO)cs2)cs1)C1(O)CC1)C(OC1OC(CO)C(O)C(O)C1OC1OC(CO)C(O)C(OC(N)=O)C1O)c1cnc[nH]1 (stereo not shown) [compound 42, 3-(6-hydroxyhexylamino)propylaminocleomycin]
Antimicrobiral potency [1]: 4,806 u/mg

Structure (SMILES): Cc1c(N)nc(C(CC(N)=O)NCC(N)C(N)=O)nc1C(=O)NC(C(=O)NC(C)C(O)C(C)C(=O)NC(C(=O)NCCc1nc(-c2nc(C(=O)NCCCNCCCN)cs2)cs1)C1(O)CC1)C(OC1OC(CO)C(O)C(O)C1OC1OC(CO)C(O)C(OC(N)=O)C1O)c1cnc[nH]1 (stereo not shown) [compound 43, 3-(3-aminopropylamino)propylaminocleomycin]
Antimicrobiral potency [1]: 2,790 u/mg

Structure (SMILES): Cc1c(N)nc(C(CC(N)=O)NCC(N)C(N)=O)nc1C(=O)NC(C(=O)NC(C)C(O)C(C)C(=O)NC(C(=O)NCCc1nc(-c2nc(C(=O)NCCCNCCCCCCN)cs2)cs1)C1(O)CC1)C(OC1OC(CO)C(O)C(O)C1OC1OC(CO)C(O)C(OC(N)=O)C1O)c1cnc[nH]1 (stereo not shown) [compound 44, 3-(6-aminohexylamino)propylaminocleomycin]
Antimicrobiral potency [1]: 3,520 u/mg

Structure (SMILES): Cc1c(N)nc(C(CC(N)=O)NCC(N)C(N)=O)nc1C(=O)NC(C(=O)NC(C)C(O)C(C)C(=O)NC(C(=O)NCCc1nc(-c2nc(C(=O)NCCCNCCCNCc3ccccc3)cs2)cs1)C1(O)CC1)C(OC1OC(CO)C(O)C(O)C1OC1OC(CO)C(O)C(OC(N)=O)C1O)c1cnc[nH]1 (stereo not shown) [compound 45, 3-(3-benzylaminopropylamino)propylaminocleomycin]
Antimicrobiral potency [1]: 8,400 u/mg

Structure (SMILES): Cc1c(N)nc(C(CC(N)=O)NCC(N)C(N)=O)nc1C(=O)NC(C(=O)NC(C)C(O)C(C)C(=O)NC(C(=O)NCCc1nc(-c2nc(C(=O)NCCCN(C)CCCNCc3ccccc3)cs2)cs1)C1(O)CC1)C(OC1OC(CO)C(O)C(O)C1OC1OC(CO)C(O)C(OC(N)=O)C1O)c1cnc[nH]1 (stereo not shown) [compound 46, 3-[N-methyl-N-(3-benzylaminopropyl)]aminopropylcleomycin]
Antimicrobiral potency [1]: 7,660 u/mg
